Data published in patent EP2114387B1, “USE OF COMPOSITIONS CONTAINING AT LEAST ONE LIGNANE AND/OR NEOLIGNANE FOR MODULATING TESTOSTERONE LEVELS” (Europe Finances, priority 2007, dated 2008).
Read-outs that look alike come from different tables or passages of the source.

What was measured:
5-α reductase type II [1] = biological target: T1, 5-α reductase type II (Homo sapiens, UniProt P31213); conditions: reference value used to choose the positive control concentration; read-out: IC50 du finasteride; cited from earlier work
T1 construct: expressed in transfected cells; host or cells: HEK II cells (HEK line kept under Geneticin-418 selection)
T1 sequence (P31213 1-254): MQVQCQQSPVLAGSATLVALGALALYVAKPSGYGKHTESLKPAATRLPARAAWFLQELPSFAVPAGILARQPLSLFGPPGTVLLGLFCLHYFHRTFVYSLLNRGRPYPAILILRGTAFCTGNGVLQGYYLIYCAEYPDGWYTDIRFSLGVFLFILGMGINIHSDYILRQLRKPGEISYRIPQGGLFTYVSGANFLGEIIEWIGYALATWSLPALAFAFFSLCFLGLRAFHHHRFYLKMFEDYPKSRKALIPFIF

5-α reductase type I [2] = biological target: T2, 5-α reductase type I (Homo sapiens, UniProt P18405); conditions: reference value used to choose the positive control concentration; read-out: IC50 du finasteride; cited from earlier work
T2 construct: expressed in transfected cells; host or cells: HEK I cells (HEK line kept under Geneticin-418 selection)
T2 sequence (P18405 1-259): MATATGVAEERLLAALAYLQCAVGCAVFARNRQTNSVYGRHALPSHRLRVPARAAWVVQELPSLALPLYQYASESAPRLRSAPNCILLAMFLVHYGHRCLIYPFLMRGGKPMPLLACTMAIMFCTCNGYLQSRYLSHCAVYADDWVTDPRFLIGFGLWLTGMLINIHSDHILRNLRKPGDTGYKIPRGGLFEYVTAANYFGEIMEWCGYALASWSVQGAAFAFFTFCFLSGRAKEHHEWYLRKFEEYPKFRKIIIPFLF

5-α reductase type I [3] = biological target: T2, 5-α reductase type I; experiment: Inhibition of 5-alpha-reductase type I in HEK I cells (conversion of [4-14C]-androstenedione to dihydroandrostenedione); type: cell-based
Procedure: Les cellules de type HEK I et HEK II ont été utilisées dans du DMEM (pH 7.4) avec 10 % FCS, Penicillin/Streptomycin (100 U/mL and 100 µg/mL) et 0.5 mg/mL de Geneticin-418-sulfate. Les tests d'inhibition ont été réalisés à des concentrations cellulaires de 0.25 x 106 cellules par 1.9 cm^2 et incubées pendant 20 h, 5 % CO2 à 37 °C.

5-α reductase type II [4] = biological target: T1, 5-α reductase type II; experiment: Inhibition of 5-alpha-reductase type II in HEK II cells (conversion of [4-14C]-androstenedione to dihydroandrostenedione); type: cell-based; conditions: for % inhibition de la 5-α reductase type II: n.i. = pas d'inhibition observée
Procedure: Les cellules de type HEK I et HEK II ont été utilisées dans du DMEM (pH 7.4) avec 10 % FCS, Penicillin/Streptomycin (100 U/mL and 100 µg/mL) et 0.5 mg/mL de Geneticin-418-sulfate. Les tests d'inhibition ont été réalisés à des concentrations cellulaires de […] cellules par 1.9 cm^2 et incubées pendant 20 h, 5 % CO2 à 37 °C.
Les composés sont dissous dans le DMSO et dilués avec le DMEM pour atteindre les concentrations finales de 100 µM, 10 µM et 1 µM.
Les mesures ont été réalisées grâce à un Phospholmager et les spots correspondant au [4-14C]-androstenedione (A) et au [4-14C]-dihydroandrostenedione (DHA) furent enregistrés avec le logiciel correspondant.
Les calculs ont été réalisés selon la formule suivante: % conversion = (PSL(DHA))/(PSL(DHA+A)) × 100 [formula]
Le pourcentage d'inhibition a été calculé sur une moyenne de deux mesures.
La référence est le finastéride, un médicament inhibiteur des 5α-reductase qui est utilisé comme contrôle positif à deux concentrations de 800 nM et 100 nM, correspondant à l'IC50 du finasteride pour la 5α-reductase de type I et la 5α-reductase de type II, respectivement.

[5] = tested on: taux plasmatique de testostérone; experiment: Plasma testosterone level in mice after chronic i.p. administration (ELISA); type: in vivo, souris SWISS; conditions: young male mice, figure 1, result in words
Procedure: […] […] • Letrozole • Dose étudiée : 2 mg/kg. • Mise en solution extemporanée dans le méthylcellulose • Honokiol • Doses étudiée : • Honokiol : 0.01, 0.05, 0.5, 2, 5, 10 mg/kg. • Mise en solution extemporanée dans le méthylcellulose • Voie d'administration : […].). • Volume d'injection : 10 ml/kg. Les dosages ont é[…] selon le protocole du kit ELISA commercialisé par la société AbCys S.A., France.

SMILES | IC50 (5-α reductase type II [1]) [nM] | IC50 (5-α reductase type I [2]) [nM] | inhibition at 0.1 µM (5-α reductase type I [3]; 100 nM, mean of two measurements, read-out: % inhibition de la 5-α reductase type I) [%] | inhibition at 0.8 µM (5-α reductase type I [3]; 800 nM, mean of two measurements, read-out: % inhibition de la 5-α reductase type I) [%] | inhibition at 0.1 µM (5-α reductase type II [4]; 100 nM, mean of two measurements, read-out: % inhibition de la 5-α reductase type II) [%] | inhibition at 0.8 µM (5-α reductase type II [4]; 800 nM, mean of two measurements, read-out: % inhibition de la 5-α reductase type II) [%] | inhibition at 1 µM (5-α reductase type I [3]; 1 µM, mean of two measurements, read-out: % inhibition de la 5-α reductase type I) [%] | inhibition at 10 µM (5-α reductase type I [3]; 10 µM, mean of two measurements, read-out: % inhibition de la 5-α reductase type I) [%] | inhibition at 100 µM (5-α reductase type I [3]; 100 µM, mean of two measurements, read-out: % inhibition de la 5-α reductase type I) [%] | sélectivité 5-α réductase de type I / type II (5-α reductase type I [3]; conclusion in words) | IC50 (5-α reductase type I [3]; estimate from the dose-dependent inhibition) [nM] | taux de testostérone plasmatique [5] | % inhibition de la 5-α reductase type II (5-α reductase type II [4]; 1 µM) | % inhibition de la 5-α reductase type II (5-α reductase type II [4]; 10 µM) | % inhibition de la 5-α reductase type II (5-α reductase type II [4]; 100 µM) | affinité pour la 5-α réductase de type II (5-α reductase type II [4]; result in words)
CC(C)(C)NC(=O)[C@H]1CC[C@H]2[C@@H]3CC[C@H]4NC(=O)C=C[C@]4(C)[C@H]3CC[C@]12C [Finasteride, finastéride, reference compound] | 100 | 800 | 11 | 48 | 55 | 89 | – | – | – | – | – | – | – | – | – | –
C=CCc1ccc(O)c(-c2ccc(O)c(CC=C)c2)c1 [Honokiol, honokiol] | – | – | – | – | – | – | 1 | 11 | 64 | inhibiteur sélectif de la 5-α réductase de type I | ~80000 | modulation du taux de testostérone en fonction des doses administrées | n.i. | n.i. | n.i. | aucune affinité n'est observée
